{
  "source": "patent US5628328A",
  "about": "“Method for measuring muscle mass” (priority 1995, dated 1997)",
  "key": {"[1]": {"set-up": "species or system human", "conditions": "in vivo", "text": "Normal volunteers with no evidence or history of diabetes mellitus or of cardiac, liver, renal or pulmonary diseases were studied. The subjects consisted of 3 males and 1 female, ranging in age from 31 to 37 years, in body weight from 47 to 92 kg, and in body mass index (BMI) from 19.2 to 25.5. The purpose and possible risks of the study were explained to all subjects, and their voluntary written consent was obtained. The study protocol was approved by the Committee for the Protection of Human Subjects of the Institutional Review Board at Vanderbilt University School of Medicine. All studies were performed at the Clinical Research Center (CRC). Subjects were placed on balanced weight-maintenance diets for at least one week before the start of the study. Meat was excluded from the subjects' diets for three days before the study and during the study.\nAll studies were performed after a 10-12 hour overnight fast. On the morning of the experiment (6.30 to 7.00 hours), an 18-gauge Angiocatheter™ (Benton Dickinson, Sandy, Utah) was placed in a superficial hand vein of the nondominant arm for blood sampling. The hand was heated to 55° C. to ensure complete arterialization (Abumrad, N.N. et al., \"Use of a heated superficial hand vein as an alternative site for the measurement of amino acid concentrations and for the study of glucose and alanine kinetics in man,\" Metabolism (1981) 30:936-940). In addition, a 16-gauge angiocatheter was inserted into the contralateral forearm vein for the infusion of L-3-[methyl-^2 H3 ]-histidine (MSD Isotopes, Montreal, Canada). Finally, another catheter was threaded retrograde into the brachial vein of the dominant arm and used for sampling of the forearm tissue.\nEach study was four days in duration. Starting at t=0 (8.00 hours), subjects were administered a bolus infusion of L-3-[methyl^2 H3 ]-histidine (D3 -3-methylhistidine) at 0.13 μmol/kg into the forearm vein of the dominant arm. The infusate was passed through a Millex-GS sterilizing filter (0.22 μm; Millipore Products Divisions, Bedford, Mass.) before the infusion. Blood samples were obtained from the superficial hand vein and from the deep forearm vein at 0, 1, 2, 5, 10, 15, 30, 45, 90, 150, 210, 270, 330, and 720 min. postinjection. During this time, the subjects were required to stay at the Clinical Research Center, although they were allowed to ambulate freely within their rooms. Free access to food and drink was allowed after the 330-min sample. After 720 min, the catheters were removed and the patients were allowed to go home. For the following three days, the subjects returned to the CRC each morning before eating for further blood sampling by percutaneous venous puncture at 1,440, 2,880, and 4,320 min postinjection. Urine was collected over 24 hour periods the day before and for three days after tracer infusion.\nBlood was collected in heparinized syringes, transferred to tubes containing Na2 EDTA (15 mg/tube), and centrifuged. The plasma obtained was immediately placed on ice. An aliquot of the plasma was processed for determination of 3-methylhistidine concentration as well as the L-3-[methyl-^2 H3 ]-histidine:3-methylhistidine isotope enrichment. The remainder of the plasma was frozen at -70° C. The urine obtained was processed for the determination of creatinine both as a measure of the completeness of the collection (Pencharz, P. B. et al., \"The effect of an energy-restricted diet on the protein metabolism of obese adolescents: nitrogen-balance and whole-body nitrogen turnover,\" Clin. Sci. (1980) 59:13-18), and for the estimation of lean body mass (Blackburn, G. L. et al., \"Nutritional and metabolic assessment of hospitalized patients,\" J. Parenter. Enteral. Nutr. (1977) 1:11-22). […]"}, "[2]": {"set-up": "species or system cattle", "conditions": "bovine, in vivo", "text": "For cattle, the same three-compartment model was used as described herein. With respect to sheep, the model differs from that shown in FIG. 1 in that de novo production of 3-methylhistidine is shown in compartment 2 and additionally, exit from compartment 3 occurs as well as from compartment 1 into urine. With respect to swine, again, de novo production of 3-methylhistidine is shown in compartment 2, and exit to urine is from compartment 3.\nUrinary 3-methylhistidine may be used in cattle and humans as an index of muscle protein breakdown but is invalid for use in pigs and lambs. […] Previously, in validating urinary 3-methylhistidineas an index of muscle proteolysis, researchers have injected ^14 C-3-methylhistidine intravenously and recovered the tracer in urine but have never described its decay in plasma. In constructing the 3-compartment model, we kept in mind known physiology of 3-methylhistidine. It has been established that there are pools of 3-methylhistidine in plasma, in other extracellular fluid pools, within muscle and in other tissues. […] Based on comparison of fits, a 3-compartment model was the best model to describe the metabolism of 3-methylhistidine; however, 2- and 4-compartment models as well as other configurations were also evaluated. […]"}, "[3]": {"set-up": "species or system dogs", "conditions": "dog, in vivo", "text": "Urinary 3-methylhistidine may be used in cattle and humans as an index of muscle protein breakdown but is invalid for use in pigs and lambs. […] Previously, in validating urinary 3-methylhistidineas an index of muscle proteolysis, researchers have injected ^14 C-3-methylhistidine intravenously and recovered the tracer in urine but have never described its decay in plasma. In constructing the 3-compartment model, we kept in mind known physiology of 3-methylhistidine. It has been established that there are pools of 3-methylhistidine in plasma, in other extracellular fluid pools, within muscle and in other tissues. The primary fate of 3-methylhistidine in humans, cattle and dogs is into urine (model exit from compartment 1), but in sheep and pigs there is a balenine pool in muscle that accumulates over time (model exit from compartment 3). The kinetic data were initially fitted to three exponential terms, indicating the possibility of a three compartment model. […] Model code 10 of SAAM was used and the models were based on a set of linear differential equations having constant coefficients. Based on comparison of fits, a 3-compartment model was the best model to describe the metabolism of 3-methylhistidine; however, 2- and 4-compartment models as well as other configurations were also evaluated. […]"}, "[4]": {"conditions": "cattle, cited from earlier work"}, "[5]": {"conditions": "cattle; cited from earlier work"}, "[6]": {"conditions": "sheep, cited from earlier work"}},
  "note": "Read-outs that look alike come from different tables or passages of the source.",
  "data": [
    {"molecule": "Cn1cnc(C[C@H](N)C(=O)O)c1", "note": "[3-methylhistidine]", "values": [
      {"measurement": "3MH Production", "setting": "[1]", "value": 3.1, "unit": "µmol/kg/day"},
      {"measurement": "L0,1 fractional transfer rate", "setting": "[1]", "value": ".004 min⁻¹"},
      {"measurement": "L1,2 fractional transfer rate", "setting": "[1]", "value": ".06 min⁻¹"},
      {"measurement": "L2,3 fractional transfer rate", "setting": "[1]", "value": ".002 min⁻¹"},
      {"measurement": "L3,2 fractional transfer rate", "setting": "[1]", "value": ".009 min⁻¹"},
      {"measurement": "M1, compartment mass", "setting": "[1]", "value": 603, "unit": "nmol/kg"},
      {"measurement": "M2, compartment mass", "setting": "[1]", "value": 912, "unit": "nmol/kg"},
      {"measurement": "M3, compartment mass", "setting": "[1]", "value": 7938, "unit": "nmol/kg"},
      {"measurement": "Plasma levels of 3-methylhistidine over time", "setting": "[1]", "value": "did not change over the four days of the study"},
      {"measurement": "R01 mass transfer rate", "setting": "[1]", "value": 2.2, "unit": "nmol/kg/min"},
      {"measurement": "R12 mass transfer rate", "setting": "[1]", "value": 53, "unit": "nmol/kg/min"},
      {"measurement": "R21 mass transfer rate", "setting": "[1]", "value": 51, "unit": "nmol/kg/min"},
      {"measurement": "R23 mass transfer rate", "setting": "[1]", "value": 9.6, "unit": "nmol/kg/min"},
      {"measurement": "R32 mass transfer rate", "setting": "[1]", "value": 7.9, "unit": "nmol/kg/min"},
      {"measurement": "Size of compartment 2 relative to compartment 1", "setting": "[1]", "value": 1.5, "unit": "times"},
      {"measurement": "Size of compartment 3 relative to compartment 1", "setting": "[1]", "value": 13, "unit": "times"},
      {"measurement": "Urinary 3MH loss", "setting": "[1]", "value": "100 % of total"},
      {"measurement": "Model 3-methylhistidine production versus urinary production", "setting": "[2]", "value": "qualitatively similar"},
      {"measurement": "Model 3-methylhistidine production versus urinary production", "setting": "[3]", "value": "qualitatively similar"},
      {"measurement": "L2,1 fractional transfer rate", "setting": "[4]; comparison", "value": 0.18, "unit": "min⁻¹"},
      {"measurement": "3MH Production", "setting": "[4]; n=36, from model", "value": 6.2, "unit": "µmol/kg/day"},
      {"measurement": "M1, compartment mass", "setting": "[4]; n=36", "value": 806, "unit": "nmol/kg"},
      {"measurement": "M2, compartment mass", "setting": "[4]; n=36", "value": 2106, "unit": "nmol/kg"},
      {"measurement": "M3, compartment mass", "setting": "[4]; n=36", "value": 7803, "unit": "nmol/kg"},
      {"measurement": "R01 mass transfer rate", "setting": "[4]; n=36", "value": 4.2, "unit": "nmol/kg/min"},
      {"measurement": "R12 mass transfer rate", "setting": "[4]; n=36", "value": 107, "unit": "nmol/kg/min"},
      {"measurement": "R21 mass transfer rate", "setting": "[4]; n=36", "value": 103, "unit": "nmol/kg/min"},
      {"measurement": "R23 mass transfer rate", "setting": "[4]; n=36", "value": 9.6, "unit": "nmol/kg/min"},
      {"measurement": "R32 mass transfer rate", "setting": "[4]; n=36", "value": 5.4, "unit": "nmol/kg/min"},
      {"measurement": "L0,1 fractional transfer rate", "setting": "[4]; number 39", "value": ".006 min⁻¹"},
      {"measurement": "L1,2 fractional transfer rate", "setting": "[4]; number 39", "value": ".06 min⁻¹"},
      {"measurement": "L2,1 fractional transfer rate", "setting": "[4]; number 39", "value": ".18 min⁻¹"},
      {"measurement": "L2,3 fractional transfer rate", "setting": "[4]; number 39", "value": ".002 min⁻¹"},
      {"measurement": "L3,2 fractional transfer rate", "setting": "[4]; number 39", "value": ".003 min⁻¹"},
      {"measurement": "Urinary 3MH loss", "setting": "[4]; number 39", "value": "100 % of total"},
      {"measurement": "Urinary excretion", "setting": "[5]", "value": "quantitatively excreted in the urine"},
      {"measurement": "3-methylhistidine excreted in urine", "setting": "[6]", "value": "approximately 15%"},
      {"measurement": "Urinary excretion", "setting": "[6]; retained in muscle as balenine", "value": "not quantitatively excreted in urine"}
    ]}
  ]
}
